In assay [1] the test system is Bacteroides fragilis LO 1. The assay is described as follows: Antibiotic activity in vitro, agar dilution method (MIC). The note with it: LO1, DST agar. It counts as cell-based.
The subject of assay [2] is Proteus mirabilis 774. The assay is described as above. It counts as cell-based. The note with it: DST agar.
Assay [3] concerns Escherichia coli 205. The assay is described as above. It is filed as cell-based. The note with it: DST agar.
For assay [4], the system named is Clostridium perfringens 194. Kind of assay: microbe, parasite or virus in culture. It is filed as cell-based.
Assay [5] deals with Haemophilus influenzae NCTC 4560. Kind of assay: Antibiotic activity in vitro, agar dilution method (MIC). It counts as cell-based. The note with it: DST agar.
In assay [6] the test system is Serratia marcescens 344. Described as above. It is filed as cell-based. The note with it: DST agar.
Assay [7] deals with Proteus rettgeri 856. The assay is described as above. The note with it: Providencia rettgeri, DST agar. It is filed as cell-based.
For assay [8], the system named is Klebsiella pneumoniae 327. Described as above. It counts as cell-based. The note with it: DST agar.
Assay [9] concerns Neisseria meningitidis 1316. The description is as above. The conditions noted are these: DST agar. It is filed as cell-based.
Assay [10] relates to Proteus morganii 2359. The assay is described as follows: Chemotherapeutic activity in vivo against systemic infection in mice (ED50). The conditions noted are these: Morganella morganii, sc, systemic infection in female SPF MF2 mice. An excerpt: (§1) B. Die chemotherapeutische Wirksamkeit in vivo gegen systemische Infektionen in weiblichen SPF, MF2 Mäusen wurde nach der Methode von Zak., 0., et al., 1979, Drugs Exptl. Clin. Res. 5, 45-59, ermittelt. Die gefundenen ED50-Werte in Milligramm Substanz pro Kilogramm Maus (mg/kg) für eine Anzahl von Mikroorganismen werden für die subcutan (s.c.) applizierten Testverbindungen in der Tabelle 2 angegeben.

In assay [11] the test system is Staphylococcus aureus 10B. The description is as above. The note with it: systemic infection in female SPF MF2 mice.
From the text: as §1

Assay [12] concerns Escherichia coli 205. The description is as above. The note with it: s.c., systemic infection in female SPF MF2 mice.
From the text: as §1

Assay [13] has as its system Staphylococcus aureus 2999i^+p^+. Kind of assay: Antibiotic activity in vitro, agar dilution method (MIC). The note with it: DST agar. It counts as cell-based. In general terms: In agar dilution the substance is mixed into plates at graded concentrations.
Assay [14] deals with Pseudomonas aeruginosa ATCC 12055. The description is as above. It is filed as cell-based. The conditions noted are these: ATCC12055, DST agar.
Assay [15] deals with Streptococcus pyogenes Aronson. The assay is described as above. It is filed as cell-based. The note with it: DST agar.
Where [16] appears, read: Proteus mirabilis, 774, agar dilution, read-out: MIC.
[17] abbreviates: Escherichia coli, 205, agar dilution, read-out: MIC.
[18] abbreviates: Haemophilus influenzae, NCTC4560, agar dilution, read-out: MIC.
The mark [19] stands for this setting: Serratia marcescens, 344, agar dilution, read-out: MIC.
[20] abbreviates: Klebsiella pneumoniae, 327, agar dilution, read-out: MIC.
The mark [21] stands for this setting: Neisseria meningitidis, 1316, agar dilution, read-out: MIC.
Setting [22] is: Staphylococcus aureus, 10B, sc, read-out: ED50.
The mark [23] stands for this setting: Escherichia coli, 205, sc, read-out: ED50.
[24] abbreviates: Staphylococcus aureus, read-out: MIC.

Structures are written as SMILES. In brackets after ≈: the same amount, converted by molar mass. Where a name gives a salt, the structure may show the parent alone. Read-outs that look alike come from different tables or passages of the source.

`CO/N=C(\C(=O)N[C@@H]1C(=O)N2C(C(=O)[O-])=C(C[n+]3ccc(C(N)=O)cc3)CS[C@H]12)c1nc(N=CN(C)C)n(C)n1` [Testverbindung 5]: the MIC worked out at 32 µg/mL (≈ 56.1 µM) in [1]; 32 µg/mL (≈ 56.1 µM) in [2] (setting [16]); 32 µg/mL (≈ 56.1 µM) in assay [3] (setting [17]); 2 µg/mL (≈ 3.51 µM) in assay [4]; 128 µg/mL (≈ 224 µM) in assay [5] (setting [18]); 128 µg/mL (≈ 224 µM) in assay [6] (setting [19]). Besides, the MIC in [7] stood at 8 µg/mL (≈ 14 µM); in assay [8] (setting [20]), 32 µg/mL (≈ 56.1 µM); in [9] (setting [21]) it was 8 µg/mL (≈ 14 µM); in assay [13] (setting [24]) it was 8 µg/mL (≈ 14 µM); in assay [14] it was 128 µg/mL (≈ 224 µM); in [15], 0.5 µg/mL (≈ 0.876 µM). Moreover, the ED50 (in general, the dose at which the effect has come halfway, by size or by number of responders) in assay [10] is 70 mg/kg; in [11] (setting [22]), 55 mg/kg; in assay [12] (setting [23]), more than 30 mg/kg.
For the compound `CO/N=C(\C(=O)N[C@@H]1C(=O)N2C(C(=O)O)=C(COC(C)=O)CS[C@H]12)c1nc(N)n(C)n1` [Beispiel 2, 7β-[2-(5-Amino-1-methyl-1H-1,2,4-triazol-3-yl)-2-Z-methoxyimino-acetamino]-3-acetoxymethyl-3-cephem-4-carbonsäure-hydrochlorid], the MIC in assay [1] was 8 µg/mL; in [2] (setting [16]) it was 0.05 µg/mL; in assay [3] (setting [17]), 0.1 µg/mL; in [4], 0.5 µg/mL; in [5] (setting [18]), 1 µg/mL; in assay [6] (agar dilution) it was 1 µg/mL. Besides, the MIC is 0.01 µg/mL in assay [7]; 0.1 µg/mL in assay [8] (setting [20]); 0,02 µg/ml in assay [9] (agar dilution); 8 µg/mL in [13] (setting [24]); 128 µg/mL in assay [14]; 0.5 µg/mL in assay [15]. The ED50 in assay [11] (s.c.) is 10 mg/kg; in [12], 1 mg/kg.
Regarding `CO/N=C(\C(=O)N[C@@H]1C(=O)N2C(C(=O)O)=C(COC(C)=O)CS[C@H]12)c1nc(N)n(C)n1` [Testverbindung 2, 7ß-[2-(5-Amino-l-methyl-lH-l,2,4-triazol-3-yl)-2-Z-methoxy-imino-acetamino]-3-acetoxymethyl-3-cephem-4-carbonsäure], the MIC in assay [2] (agar dilution, listed as 3) is 0,1 µg/ml; in assay [3] (agar dilution, listed as 3) it was 0,05 µg/ml; in assay [5] (agar dilution, listed as 3) it was 0,5 µg/ml; in [6] (agar dilution, listed as 3), 0,1 µg/ml; in assay [8] (agar dilution, listed as 3), 0,05 µg/ml; in [9] (agar dilution, listed as 3) it was 0,1 µg/ml. The MIC in assay [13] (listed as 3) came to 4 µg/mL (≈ 8.82 µM). In addition, the ED50 in assay [10] was more than 30 mg/kg; in assay [11] (s.c., listed as 3) it was more than 30 mg/kg; in [12] (listed as 3), 0,4 mg/kg.
In the case of `CO/N=C(\C(=O)N[C@@H]1C(=O)N2C(C(=O)O)=C(CSc3nnnn3C)CS[C@H]12)c1nc(N)n(C)n1` [Testverbindung 3, 7β-[2-(5-Amino-1-methyl-1H-1,2,4-triazol-3-yl)-2-Z-methoxyimino-acetamino]-3-(1-methyltetrazol-5-yl-thiomethyl)-3-cephem-4-carbonsäure], the MIC turned out to be 16 µg/mL (≈ 31.4 µM) in assay [1]; 0.2 µg/mL (≈ 0.393 µM) in assay [2] (setting [16]); 0.2 µg/mL (≈ 0.393 µM) in assay [3] (setting [17]); 0.2 µg/mL (≈ 0.393 µM) in [4]; 8 µg/mL (≈ 15.7 µM) in assay [5] (setting [18]); 0.5 µg/mL (≈ 0.981 µM) in assay [6] (setting [19]). Moreover, the MIC in assay [7] worked out at 0.1 µg/mL (≈ 0.196 µM); in assay [8] (setting [20]) it was 0.2 µg/mL (≈ 0.393 µM); in [9] (setting [21]), 0.5 µg/mL (≈ 0.981 µM); in assay [13] (setting [24]), 8 µg/mL (≈ 15.7 µM); in assay [14] it was 1 µg/mL (≈ 1.96 µM); in assay [15], 1 µg/mL (≈ 1.96 µM). Further, the ED50 in assay [10] worked out at 50 mg/kg; in assay [11] (setting [22]), 28 mg/kg; in assay [12] (setting [23]), 1.7 mg/kg.
Regarding `CC(=O)OCC1=C(C(=O)O)N2C(=O)[C@@H](NC(=O)Cc3nc(N)n(C)n3)[C@H]2SC1` [Testverbindung 1, 7β-[2-(5-Amino-1-methyl-1H-1,2,4-triazol-3-yl)-acetamino]-3-acetoxymethyl-3-cephem-4-carbonsäure], the MIC in assay [2] (setting [16]) turned out to be 128 µg/mL (≈ 312 µM); in assay [3] (setting [17]), 32 µg/mL (≈ 78 µM); in assay [4], 16 µg/mL (≈ 39 µM); in assay [5] (setting [18]) it was 4 µg/mL (≈ 9.75 µM); in assay [7] it was 32 µg/mL (≈ 78 µM); in assay [8] (setting [20]), 16 µg/mL (≈ 39 µM). The results for the MIC in assay [9] (setting [21]), in [13] (setting [24]) and in assay [15] were 2 µg/mL (≈ 4.87 µM), 8 µg/mL (≈ 19.5 µM) and 1 µg/mL (≈ 2.44 µM), respectively. Also, the ED50 in assay [10] and in assay [12] (setting [23]) was more than 30 mg/kg each time.
Take `CO/N=C(\C(=O)N[C@@H]1C(=O)N2C(C(=O)[O-])=C(C[n+]3ccc(C(N)=O)cc3)CS[C@H]12)c1nc(N)n(C)n1` [Testverbindung 4, 7β-[2-(5-Amino-1-methyl-1H-1,2,4-triazol-3-yl)-2-Z-methoxyimino-acetamino]-3-(4-carbamoylpyridiniomethyl)-3-cephem-4-carboxylat]: the MIC in [1] came out at 4 µg/mL (≈ 7.76 µM); in assay [2] (setting [16]), 0.1 µg/mL (≈ 0.194 µM); in [3] (setting [17]), 0.1 µg/mL (≈ 0.194 µM); in assay [4], 8 µg/mL (≈ 15.5 µM); in [5] (setting [18]) it was 2 µg/mL (≈ 3.88 µM); in assay [6] (setting [19]) it was 0.5 µg/mL (≈ 0.97 µM). The MIC in assay [7] was 0.02 µg/mL (≈ 0.0388 µM); in assay [8] (setting [20]), 0.1 µg/mL (≈ 0.194 µM); in [9] (setting [21]), 0.5 µg/mL (≈ 0.97 µM); in assay [13] (setting [24]) it was 32 µg/mL (≈ 62.1 µM); in assay [15], 32 µg/mL (≈ 62.1 µM). The ED50 in [12] (setting [23]) stood at 2.5 mg/kg.

Source of the values: patent EP0070803A2, “Antibiotically active aminotriazolylcephalosporin derivatives and their preparation” (CIBA-GEIGY AG, priority 1981, dated 1983).
